In brackets after ≈: the same amount, converted by molar mass. Read-outs that look alike come from different tables or passages of the source.
Test system: Enterobacterales
Assay: MIC, broth microdilution, CDC/FDA Antibiotic Resistance Isolate Bank (Example 7, Tables 8, 11, 12)
Type: cell-based
Conditions: for MIC: read-out: MIC

## CO/N=C(\C(=O)N[C@@H]1C(=O)N2C(C(=O)[O-])=C(C[n+]3ccn4ncccc43)CS[C@H]12)c1nsc(N)n1 [Cefozopran, cefozopran]
154 strains of Enterobacterales, read-out: MIC50
  MIC50: 64 µg/mL (≈ 124 µM)
154 strains of Enterobacterales, read-out: MIC80
  MIC80: > 64 µg/mL
154 strains of Enterobacterales, read-out: MIC90
  MIC90: > 64 µg/mL
Citrobacter freundii, KUB No. 5654, AR Bank # 157
  MIC: > 64 µg/mL
Enterobacter cloacae, Enterobacter cloacae KUB No. 5792, AR Bank #448
  MIC: > 64 µg/mL
Enterobacter cloacae, Enterobacter cloacae KUB No. 5807, AR Bank #501
  MIC: > 64 µg/mL
Enterobacter cloacae, Enterobacter cloacae KUB No. 5808, AR Bank #502
  MIC: > 64 µg/mL
Enterobacter cloacae, Enterobacter cloacae complex, KUB No. 5661, AR Bank # 164
  MIC: 1 µg/mL (≈ 1.94 µM)
Enterobacter cloacae, Enterobacter cloacae group, KUB No. 5629, AR Bank # 132
  MIC: 0.25 µg/mL (≈ 0.485 µM)
Enterobacter cloacae, KUB No. 5529, AR Bank# 32
  MIC: 4 µg/mL (≈ 7.76 µM)
Enterobacter cloacae, KUB No. 5535, AR Bank# 38
  MIC: > 64 µg/mL
Enterobacter cloacae, KUB No. 5547, AR Bank# 50
  MIC: 8 µg/mL (≈ 15.5 µM)
Enterobacter cloacae, KUB No. 5550, AR Bank# 53
  MIC: > 64 µg/mL
Enterobacter cloacae, KUB No. 5557, AR Bank# 60
  MIC: 2 µg/mL (≈ 3.88 µM)
Enterobacter cloacae, KUB No. 5562, AR Bank # 65
  MIC: 16 µg/mL (≈ 31 µM)
Enterobacter cloacae, KUB No. 5569, AR Bank # 72
  MIC: 16 µg/mL (≈ 31 µM)
Enterobacter cloacae, KUB No. 5570, AR Bank # 73
  MIC: 0.25 µg/mL (≈ 0.485 µM)
Enterobacter cloacae, KUB No. 5590, AR Bank # 93
  MIC: 32 µg/mL (≈ 62.1 µM)
Enterobacter cloacae, KUB No. 5660, AR Bank # 163
  MIC: > 64 µg/mL
Enterobacter cloacae, KUB No. 5761, AR Bank # 365
  MIC: 16 µg/mL (≈ 31 µM)
Enterobacter cloacae, KUB No. 5762, AR Bank # 366
  MIC: 16 µg/mL (≈ 31 µM)
Enterobacter cloacae, KUB No. 5763, AR Bank # 367
  MIC: 4 µg/mL (≈ 7.76 µM)
Enterobacter cloacae, KUB No. 5778, AR Bank # 432
  MIC: > 64 µg/mL
Enterobacter cloaccae, KUB No. 5651, AR Bank # 154
  MIC: > 64 µg/mL
Enterobacter clooreae, KUB No. 5633, AR Bank # 136
  MIC: > 64 µg/mL
Escherichia coli, Escherichia coli KUB No. 5783, AR Bank #437
  MIC: > 64 µg/mL
Escherichia coli, Escherichia coli KUB No. 5794, AR Bank #450
  MIC: > 64 µg/mL
Escherichia coli, Escherichia coli KUB No. 5795, AR Bank #451
  MIC: 64 µg/mL (≈ 124 µM)
Escherichia coli, Escherichia coli KUB No. 5796, AR Bank #452
  MIC: > 64 µg/mL
Escherichia coli, Escherichia coli KUB No. 5803, AR Bank #861
  MIC: > 64 µg/mL
Escherichia coli, KUB No. 5558, AR Bank # 61
  MIC: 16 µg/mL (≈ 31 µM)
Escherichia coli, KUB No. 5564, AR Bank # 67
  MIC: 0.25 µg/mL (≈ 0.485 µM)
Escherichia coli, KUB No. 5566, AR Bank # 69
  MIC: > 64 µg/mL
Escherichia coli, KUB No. 5574, AR Bank # 77
  MIC: 0.06 µg/mL (≈ 0.116 µM)
Escherichia coli, KUB No. 5578, AR Bank # 81
  MIC: 0.5 µg/mL (≈ 0.97 µM)
Escherichia coli, KUB No. 5581, AR Bank # 84
  MIC: 0.25 µg/mL (≈ 0.485 µM)
Escherichia coli, KUB No. 5582, AR Bank # 85
  MIC: 8 µg/mL (≈ 15.5 µM)
Escherichia coli, KUB No. 5583, AR Bank # 86
  MIC: > 64 µg/mL
Escherichia coli, KUB No. 5586, AR Bank # 89
  MIC: 0.5 µg/mL (≈ 0.97 µM)
Escherichia coli, KUB No. 5601, AR Bank # 104
  MIC: 32 µg/mL (≈ 62.1 µM)
Escherichia coli, KUB No. 5611, AR Bank # 114
  MIC: 16 µg/mL (≈ 31 µM)
Escherichia coli, KUB No. 5615, AR Bank # 118
  MIC: > 64 µg/mL
Escherichia coli, KUB No. 5616, AR Bank # 119
  MIC: > 64 µg/mL
Escherichia coli, KUB No. 5625, AR Bank # 128
  MIC: > 64 µg/mL
Escherichia coli, KUB No. 5634, AR Bank # 137
  MIC: > 64 µg/mL
Escherichia coli, KUB No. 5646, AR Bank # 149
  MIC: > 64 µg/mL
Escherichia coli, KUB No. 5647, AR Bank # 150
  MIC: > 64 µg/mL
Escherichia coli, KUB No. 5648, AR Bank # 151
  MIC: > 64 µg/mL
Escherichia coli, KUB No. 5659, AR Bank # 162
  MIC: > 64 µg/mL
Escherichia coli, KUB No. 5764, AR Bank # 368
  MIC: 0.06 µg/mL (≈ 0.116 µM)
Escherichia coli, KUB No. 5765, AR Bank # 369
  MIC: 32 µg/mL (≈ 62.1 µM)
Escherichia coli, KUB No. 5766, AR Bank # 370
  MIC: 64 µg/mL (≈ 124 µM)
Escherichia coli, KUB No. 5767, AR Bank # 371
  MIC: 32 µg/mL (≈ 62.1 µM)
Escherichia coli, KUB No. 5768, AR Bank # 372
  MIC: > 64 µg/mL
Escherichia coli, KUB No. 5769, AR Bank # 373
  MIC: 0.5 µg/mL (≈ 0.97 µM)
Escherichia coli, KUB No. 5770, AR Bank # 374
  MIC: 1 µg/mL (≈ 1.94 µM)
Escherichia coli, KUB No. 5774, AR Bank # 378
  MIC: ≤ 0.03 µg/mL
Escherichia coli, KUB No. 5779, AR Bank # 433
  MIC: 16 µg/mL (≈ 31 µM)
Escherichia coli, KUB No. 5780, AR Bank # 434
  MIC: 64 µg/mL (≈ 124 µM)
Escherichia coli, KUB No. 5781, AR Bank # 435
  MIC: > 64 µg/mL
Escherichia, KUB No. 57, AR Bank # 436 (row cut off)
  MIC: 1 µg/mL (≈ 1.94 µM)
Klebsiella aerogenes, Enterobacter aerogenes, KUB No. 5559, AR Bank # 62
  MIC: 0.5 µg/mL (≈ 0.97 µM)
Klebsiella aerogenes, Enterobacter aerogenes, KUB No. 5571, AR Bank # 74
  MIC: 0.5 µg/mL (≈ 0.97 µM)
Klebsiella aerogenes, Enterobacter aerogenes, KUB No. 5658, AR Bank # 161
  MIC: 32 µg/mL (≈ 62.1 µM)
Klebsiella aerogenes, Enterobacter aerogenes, KUB No. 5777, AR Bank # 431
  MIC: 4 µg/mL (≈ 7.76 µM)
Klebsiella oxytoca, KUB No. 5568, AR Bank # 71
  MIC: > 64 µg/mL
Klebsiella oxytoca, KUB No. 5644, AR Bank # 147
  MIC: 1 µg/mL (≈ 1.94 µM)
Klebsiella oxytoca, KUB No. 5771, AR Bank # 375
  MIC: 0.5 µg/mL (≈ 0.97 µM)
Klebsiella oxytoca, KUB No. 5776, AR Bank # 380
  MIC: 32 µg/mL (≈ 62.1 µM)
Klebsiella ozaenae, KUB No. 5548, AR Bank# 51
  MIC: > 64 µg/mL
Klebsiella ozaenae, KUB No. 5593, AR Bank # 96
  MIC: > 64 µg/mL
Klebsiella pnemnonine, KUB No. 5758, AR Bank # 362
  MIC: 32 µg/mL (≈ 62.1 µM)
Klebsiella pneumoniae, KUB No. 55, AR Bank# 47
  MIC: > 64 µg/mL
Klebsiella pneumoniae, KUB No. 5531, AR Bank# 34
  MIC: 4 µg/mL (≈ 7.76 µM)
Klebsiella pneumoniae, KUB No. 5536, AR Bank# 39
  MIC: > 64 µg/mL
Klebsiella pneumoniae, KUB No. 5537, AR Bank# 40
  MIC: > 64 µg/mL
Klebsiella pneumoniae, KUB No. 5538, AR Bank# 41
  MIC: > 64 µg/mL
Klebsiella pneumoniae, KUB No. 5540, AR Bank# 43
  MIC: > 64 µg/mL
Klebsiella pneumoniae, KUB No. 5541, AR Bank# 44
  MIC: > 64 µg/mL
Klebsiella pneumoniae, KUB No. 5543, AR Bank# 46
  MIC: > 64 µg/mL
Klebsiella pneumoniae, KUB No. 5546, AR Bank# 49
  MIC: > 64 µg/mL
Klebsiella pneumoniae, KUB No. 5563, AR Bank # 66
  MIC: > 64 µg/mL
Klebsiella pneumoniae, KUB No. 5565, AR Bank # 68
  MIC: > 64 µg/mL
Klebsiella pneumoniae, KUB No. 5572, AR Bank # 75
  MIC: > 64 µg/mL
Klebsiella pneumoniae, KUB No. 5573, AR Bank # 76
  MIC: 64 µg/mL (≈ 124 µM)
Klebsiella pneumoniae, KUB No. 5576, AR Bank # 79
  MIC: > 64 µg/mL
Klebsiella pneumoniae, KUB No. 5577, AR Bank # 80
  MIC: > 64 µg/mL
Klebsiella pneumoniae, KUB No. 5584, AR Bank # 87
  MIC: 32 µg/mL (≈ 62.1 µM)
Klebsiella pneumoniae, KUB No. 5594, AR Bank # 97
  MIC: > 64 µg/mL
Klebsiella pneumoniae, KUB No. 5595, AR Bank # 98
  MIC: 16 µg/mL (≈ 31 µM)
Klebsiella pneumoniae, KUB No. 5603, AR Bank # 106
  MIC: > 64 µg/mL
Klebsiella pneumoniae, KUB No. 5604, AR Bank # 107
  MIC: > 64 µg/mL
Klebsiella pneumoniae, KUB No. 5606, AR Bank # 109
  MIC: > 64 µg/mL
Klebsiella pneumoniae, KUB No. 5609, AR Bank # 112
  MIC: 32 µg/mL (≈ 62.1 µM)
Klebsiella pneumoniae, KUB No. 5610, AR Bank # 113
  MIC: > 64 µg/mL
Klebsiella pneumoniae, KUB No. 5612, AR Bank # 115
  MIC: 32 µg/mL (≈ 62.1 µM)
Klebsiella pneumoniae, KUB No. 5614, AR Bank # 117
  MIC: > 64 µg/mL
Klebsiella pneumoniae, KUB No. 5617, AR Bank # 120
  MIC: 32 µg/mL (≈ 62.1 µM)
Klebsiella pneumoniae, KUB No. 5622, AR Bank # 125
  MIC: 32 µg/mL (≈ 62.1 µM)
Klebsiella pneumoniae, KUB No. 5623, AR Bank # 126
  MIC: 64 µg/mL (≈ 124 µM)
Klebsiella pneumoniae, KUB No. 5626, AR Bank # 129
  MIC: 32 µg/mL (≈ 62.1 µM)
Klebsiella pneumoniae, KUB No. 5632, AR Bank # 135
  MIC: > 64 µg/mL
Klebsiella pneumoniae, KUB No. 5635, AR Bank # 138
  MIC: > 64 µg/mL

— EP4635500A1, “THERAPEUTIC AGENT FOR BACTERIAL INFECTION” (Sumitomo Pharma Co., Ltd., priority 2022, dated 2024)
